The structures appear in SMILES notation. Converted amounts (≈) assume the structure as drawn. The source made the active and inactive calls.

The MIC is the smallest concentration in the dilution series that meets the test's criterion for growth inhibition. Read a high MIC as weaker potency. What is called IC50 is the midpoint of a concentration-inhibition curve. A higher IC50 goes with a need for much substance.

The nature of test [1]: Relative permeability as IC50 for beta lactamase inhibition in intact Pseudomonas aeruginosa growing cells to the observed IC50 in the same cells treated with 0.7% final concentration of octyl-poly(oxyethylene). In kind it is functional.
Test [2] can be described thus: Relative permeability as IC50 for beta lactamase inhibition in intact Citrobacter freundii growing cells to the observed IC50 in the same cells treated with 0.7% final concentration of octyl-poly(oxyethylene). In kind it is functional.
The next test has as its system Escherichia coli. Put plainly: In vitro inhibition of Escherichia coli TEM-3 growth. In kind it is functional.
The target in test [3] is Beta-lactamase (Pseudomonas aeruginosa (strain ATCC 15692 / PAO1 / 1C / PRS 101 / LMG12228)) (UniProt P24735).
Beta-lactamase (Pseudomonas aeruginosa (strain ATCC 15692 / PAO1 / 1C / PRS 101 / LMG12228)), sequence (P24735 27-397 limits assumed): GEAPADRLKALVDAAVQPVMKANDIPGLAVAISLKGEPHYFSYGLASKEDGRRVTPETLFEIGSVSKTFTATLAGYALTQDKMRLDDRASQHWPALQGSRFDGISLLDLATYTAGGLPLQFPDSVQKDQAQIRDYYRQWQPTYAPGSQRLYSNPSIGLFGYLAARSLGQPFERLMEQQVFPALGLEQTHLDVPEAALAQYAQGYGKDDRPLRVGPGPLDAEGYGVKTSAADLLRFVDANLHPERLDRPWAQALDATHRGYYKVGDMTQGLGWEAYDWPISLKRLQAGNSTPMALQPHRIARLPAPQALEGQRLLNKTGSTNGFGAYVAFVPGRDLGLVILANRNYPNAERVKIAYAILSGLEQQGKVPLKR
Description: Deacylation of 18SH Beta-lactamase of Pseudomonas aeruginosa
The target is the same in test [4]. This is another data set of the same source.
Description: Acylation of Pseudomonas aeruginosa 18SH Beta-lactamase
For the next test, the target named is Beta-lactamase (Pseudomonas aeruginosa (strain ATCC 15692 / PAO1 / 1C / PRS 101 / LMG12228), UniProt P24735). In words: Inhibition of Pseudomonas aeruginosa 18SH Beta-lactamase.
Beta-lactamase, sequence (P24735 whole entry): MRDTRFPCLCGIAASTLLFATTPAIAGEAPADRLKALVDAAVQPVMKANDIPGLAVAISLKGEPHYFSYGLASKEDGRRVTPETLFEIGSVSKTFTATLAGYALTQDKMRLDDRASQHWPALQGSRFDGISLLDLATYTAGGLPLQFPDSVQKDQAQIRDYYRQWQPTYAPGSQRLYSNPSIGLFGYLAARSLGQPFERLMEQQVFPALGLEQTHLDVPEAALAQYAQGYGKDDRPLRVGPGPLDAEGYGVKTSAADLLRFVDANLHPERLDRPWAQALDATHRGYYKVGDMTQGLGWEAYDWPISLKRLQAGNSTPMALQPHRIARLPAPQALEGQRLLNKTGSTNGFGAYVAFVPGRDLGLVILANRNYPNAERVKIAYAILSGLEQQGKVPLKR
The target in test [5] is Beta-lactamase (Pseudomonas aeruginosa (strain ATCC 15692 / PAO1 / 1C / PRS 101 / LMG12228)) (UniProt P24735). The source holds these as a separate data set.
Description: Affinity for stable acyl 18SH Beta-lactamase complex of Pseudomonas aeruginosa
The next test concerns Citrobacter freundii. In words: In vitro inhibition of Citrobacter freundii 1982 growth. In kind it is functional.
The subject of the next test is Pseudomonas aeruginosa. In words: In vitro inhibition of Pseudomonas aeruginosa 18SH growth. In kind it is functional.
Test [6] is described as follows: Relative permeability as IC50 for beta lactamase inhibition in intact Pseudomonas aeruginosa growing cells to the observed IC50 in the same cells treated with 0.7% final concentration of octyl-poly(oxyethylene);NA= Not active. In kind it is functional, cell-based.
Test [7] in a line: Relative permeability as IC50 for beta lactamase inhibition in intact Citrobacter freundii growing cells to the observed IC50 in the same cells treated with 0.7% final concentration of octyl-poly(oxyethylene);NA= Not active. In kind it is functional, cell-based.
The target in test [8] is Beta-lactamase (Pseudomonas aeruginosa (strain ATCC 15692 / PAO1 / 1C / PRS 101 / LMG12228)) (UniProt P24735). The source holds these as a separate data set.
Description: Time taken for deacylation of Pseudomonas aeruginosa 18SH Beta-lactamase
A further test concerns the target Beta-lactamase TEM (Escherichia coli, UniProt P62593). Put plainly: Inhibitory activity against Escherichia coli TEM-3 Beta-lactamase;NA=not active.

Beta-lactamase TEM, sequence (P62593 24-286 limits assumed): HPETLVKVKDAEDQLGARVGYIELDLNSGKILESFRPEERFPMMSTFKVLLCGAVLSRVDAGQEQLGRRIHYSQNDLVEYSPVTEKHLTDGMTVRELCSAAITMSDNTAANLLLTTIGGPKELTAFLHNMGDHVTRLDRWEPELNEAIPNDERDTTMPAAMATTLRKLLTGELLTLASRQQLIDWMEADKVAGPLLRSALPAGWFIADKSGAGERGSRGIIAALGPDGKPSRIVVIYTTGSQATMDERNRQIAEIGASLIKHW

`O=C(Nc1ccc(O)cc1)N1CC[C@@H]2[C@H]1C(=O)N2S(=O)(=O)[O-].[Na+]`: the Ratio in [1] stood at 38; in test [2], 0.6. For the same compound, the MIC in the test with Escherichia coli amounted to 8 µg/mL. This compound also had a k off in [3] of 5.3e-05 s⁻¹. Further, the Kon in test [4] was determined as 0.4 s⁻¹. On Beta-lactamase, this compound returned an IC50 of 155 nM. The compound further returned a Ks in test [5] of 50 µM.
Take `NC(=O)c1cccc(NC(=O)N2CC[C@@H]3[C@H]2C(=O)N3S(=O)(=O)[O-])c1.[Na+]`: the minimal inhibitory concentration (MIC) with Citrobacter freundii worked out at 1 µg/mL; in the test on Escherichia coli, 16 µg/mL; in the test on Pseudomonas aeruginosa, 16 µg/mL. For the same compound, the IC50 at Beta-lactamase was 24 nM.
As for `O=C(OCc1ccccc1)N1CC[C@@H]2[C@H]1C(=O)N2S(=O)(=O)[O-].[Na+]`, the MIC against Citrobacter freundii was found to be 8 µg/mL; against Escherichia coli, 16 µg/mL; against Pseudomonas aeruginosa, 128 µg/mL. The concentration for half-maximal inhibition (IC50) on Beta-lactamase came to 200 nM.
Regarding `O=C1NCC[C@@H]1NC(=O)N1CC[C@@H]2[C@H]1C(=O)N2S(=O)(=O)[O-].[Na+]`, the minimum inhibitory concentration (MIC) against Citrobacter freundii worked out at 1 µg/mL; in the test with Escherichia coli it was 16 µg/mL; in the test with Pseudomonas aeruginosa it was 4 µg/mL. On Beta-lactamase, this compound gave a half-maximal inhibitory concentration (IC50) of 2250 nM.
`Cn1nnnc1S[C@@H]1CN(C(=O)OCc2ccccc2)[C@@H]2C(=O)N(S(=O)(=O)[O-])[C@@H]21.[Na+]`: the Ratio turned out to be 68 in [1] and 10 in test [2]. In the test with Escherichia coli, the MIC was found to be 16 µg/mL. For the same compound, the k off in [3] is 4.1e-05 s⁻¹. The Kon in test [4] was 3.8 s⁻¹. This compound also yielded an IC50 on Beta-lactamase of 613 nM. The compound further gave a Ks in test [5] of 15 µM.
For `Cn1cnnc1SCC(=O)N1CC[C@@H]2[C@H]1C(=O)N2S(=O)(=O)[O-].[Na+]`, the minimum inhibitory concentration (MIC) is 1 µg/mL against Citrobacter freundii, 8 µg/mL against Escherichia coli and 128 µg/mL against Pseudomonas aeruginosa. At Beta-lactamase, this compound came in with an IC50 of 853 nM.
As to `NC(=O)Nc1ccc(NC(=O)N2CC[C@@H]3[C@H]2C(=O)N3S(=O)(=O)[O-])cc1.[Na+]`, the values for the MIC with Citrobacter freundii, against Escherichia coli and against Pseudomonas aeruginosa were 0.25 µg/mL, 16 µg/mL and 4 µg/mL, respectively. At Beta-lactamase, this compound had a half-inhibitory concentration (IC50) of 48 nM.
Regarding `O=C(NC1CCNCC1)N1CC[C@@H]2[C@H]1C(=O)N2S(=O)(=O)[O-].[Na+]`, the figures for the Ratio in [1] and in [2] were 1 and 1.7, respectively. In the test on Escherichia coli, this compound showed a minimum inhibitory concentration (MIC) of 16 µg/mL. Further, in [3], the k off was 0.0012 s⁻¹. The compound also showed a Kon in [4] of 1.5 s⁻¹. Also, the 50% inhibitory concentration (IC50) at Beta-lactamase is 3900 nM. In test [5], this compound showed a Ks of 1480 µM.
As to `O=C(O)[C@H]1/C(=C/CO)O[C@@H]2CC(=O)N21` [CLAVULANIC ACID], the results for the minimal inhibitory concentration (MIC) against Citrobacter freundii, against Escherichia coli and against Pseudomonas aeruginosa were 8 µg/mL (≈ 40.2 µM), 0.25 µg/mL (≈ 1.26 µM) and above 32 µg/mL, respectively.
`CC(C)(C)OC(=O)N1CCC[C@@H]2[C@H]1C(=O)N2S(=O)(=O)[O-].[Na+]`: the minimum inhibitory concentration (MIC) in the test on Escherichia coli was 16 µg/mL. The compound also displayed a k off in [3] of 0.0007 s⁻¹. Besides, in test [4], the Kon was found to be 0.5 s⁻¹. For the same compound, the Ratio entry in [6] and in test [7] was “inactive” in each case. The IC50 against Beta-lactamase worked out at 145000 nM. In addition, the Ks in test [5] amounted to 3500 µM.
Take `O=C(/C=C/c1c[nH]cn1)N1CC[C@@H]2[C@H]1C(=O)N2S(=O)(=O)[O-].[Na+]`: the MIC was 0.5 µg/mL against Citrobacter freundii, 16 µg/mL in the test on Escherichia coli and 8 µg/mL against Pseudomonas aeruginosa. The compound further came in with a half-inhibitory concentration (IC50) against Beta-lactamase of 110 nM.
For the compound `NC(C(=O)N1CC[C@@H]2[C@H]1C(=O)N2S(=O)(=O)[O-])c1ccc(O)cc1.[Na+]` (stereo partly drawn), the figures for the Ratio in [1] and in [2] were 8.2 and 8.7, respectively. In the test on Escherichia coli, 8 µg/mL was the least that counted as inhibitory (MIC). Moreover, the k off in test [3] was below 1e-05 s⁻¹. This compound had a Kon in test [4] of 2.7 s⁻¹. The compound also displayed a half-inhibitory concentration (IC50) against Beta-lactamase of 90 nM. For the same compound, the Ks in test [5] worked out at 6.9 µM.
As for `Cc1nn(C)c(SCC(=O)N2CC[C@@H]3[C@H]2C(=O)N3S(=O)(=O)[O-])nc1=O.[Na+]`, the MIC against Citrobacter freundii was 0.25 µg/mL; against Escherichia coli it was 16 µg/mL; with Pseudomonas aeruginosa, 16 µg/mL. The IC50 against Beta-lactamase stood at 55 nM.
Turning to `CC(C)(C)OC(=O)N1CC[C@@H]2[C@H]1C(=O)N2S(=O)(=O)[O-].[Na+]`, in test [1], the Ratio was 24. The compound also gave a minimum inhibitory concentration (MIC) in the test on Escherichia coli of 16 µg/mL. Further, the k off in [3] stood at 3.7e-05 s⁻¹. Further, the Kon in test [4] was 11 s⁻¹. In addition, in test [7], the Ratio entry is “inactive”. In addition, inhibition at Beta-lactamase was half-maximal at 1500 nM (IC50). In addition, the Ks in test [5] came to 127 µM.
In the case of `NC(=O)/C=C1\CN(C(=O)OCc2ccccc2)[C@@H]2C(=O)N(S(=O)(=O)[O-])[C@H]12.[Na+]`, the results for the minimal inhibitory concentration (MIC) with Citrobacter freundii, with Escherichia coli and in the test with Pseudomonas aeruginosa were above 16 µg/mL, 16 µg/mL and above 16 µg/mL, respectively. The same compound showed a half-maximal inhibitory concentration (IC50) against Beta-lactamase of 1040 nM.
As for `O=C(CNc1ccc(O)cc1)N1CC[C@@H]2[C@H]1C(=O)N2S(=O)(=O)[O-].[Na+]`, the figures for the minimum inhibitory concentration (MIC) with Citrobacter freundii, in the test on Escherichia coli and in the test with Pseudomonas aeruginosa were 8 µg/mL, 8 µg/mL and 128 µg/mL, respectively. Also, half-maximal inhibition at Beta-lactamase (IC50) was put at 25 nM.
For the compound `O=C(OCc1ccccc1)N1C[C@H](F)[C@@H]2[C@H]1C(=O)N2S(=O)(=O)[O-].[Na+]`, the MIC in the test on Citrobacter freundii is above 16 µg/mL; in the test on Escherichia coli, 16 µg/mL; in the test with Pseudomonas aeruginosa it was above 16 µg/mL. At Beta-lactamase, this compound registered an IC50 of 380 nM.
For the compound `Cn1ccnc1SCC(=O)N1CC[C@@H]2[C@H]1C(=O)N2S(=O)(=O)[O-].[Na+]`, the minimum inhibitory concentration (MIC) was determined as 1 µg/mL in the test with Citrobacter freundii, 16 µg/mL in the test on Escherichia coli and 8 µg/mL against Pseudomonas aeruginosa. Besides, 612 nM corresponded to half-maximal inhibition against Beta-lactamase (IC50).
With `NC(=O)c1ccc(NC(=O)N2CC[C@@H]3[C@H]2C(=O)N3S(=O)(=O)[O-])cc1.[Na+]`, the results for the MIC in the test on Citrobacter freundii, against Escherichia coli and in the test on Pseudomonas aeruginosa were 0.5 µg/mL, 16 µg/mL and 4 µg/mL, respectively. Also, the IC50 against Beta-lactamase amounted to 217 nM.
For the compound `Cn1nnnc1SCC(=O)N1CC[C@@H]2[C@H]1C(=O)N2S(=O)(=O)[O-].[Na+]`, the minimal inhibitory concentration (MIC) turned out to be 0.5 µg/mL with Citrobacter freundii, 8 µg/mL in the test with Escherichia coli and 8 µg/mL in the test with Pseudomonas aeruginosa. Further, the half-inhibitory concentration (IC50) on Beta-lactamase is 200 nM.
For the compound `[NH-]C(=O)c1ccc[n+](CC(=O)N2CC[C@@H]3[C@H]2C(=O)N3S(=O)(=O)[O-])c1.[Na+]`, the Ratio in test [1] is given as 1.2; in [2] it was 0.8. The minimum inhibitory concentration (MIC) against Escherichia coli amounted to 8 µg/mL. Moreover, the k off in test [8] was 9e-06 s⁻¹. In test [4], this compound had a Kon of 0.9 s⁻¹. Moreover, half-maximal inhibition against Beta-lactamase (IC50) required 27 nM. In addition, the Ks in test [5] amounted to 65 µM.
For the compound `O=C(Nc1ccccc1)N1CC[C@@H]2[C@H]1C(=O)N2S(=O)(=O)[O-].[Na+]`, the MIC against Citrobacter freundii is 2 µg/mL; against Escherichia coli it was 4 µg/mL; against Pseudomonas aeruginosa, 8 µg/mL. At Beta-lactamase TEM, the 50% inhibitory concentration (IC50) is listed as 420 nM (not active).

The record behind these values is ChEMBL document CHEMBL1131130, “Structure-based design of beta-lactamase inhibitors. 1. Synthesis and evaluation of bridged monobactams” (J Med Chem, 1998).
